Assay results reported in ChEMBL document CHEMBL6103623, “Phenolics and Phenolic Glycosides from Wrightia pubescens and Their Hepatoprotective Activities” (J Nat Prod, 2025).
Calls of active or inactive are those of the source. No cut-off for these calls is given here.

Columns and labels:
HepG2 [1] = assay: Cytotoxicity against human HepG2 cells assessed as reduction in cell viability at 100 uM incubated for 48 hrs by MTT assay; format: toxicity, cell-based; conditions: hepg2, 48 h
HepG2 [2] = assay: Hepatoprotective activity against APAP-induced cell injury in human HepG2 cells assessed as increase in survival rate preincubated for 24 hrs followed by APAP addition and measured after 24 hrs by MTT assay; format: functional, cell-based; conditions: dose 6.25-25 µM, time 48.0 hrs
HepG2 [3] = assay: Hepatoprotective activity against APAP-induced cell injury in human HepG2 cells assessed as reduction in ALT level at 6.25 to 25 uM preincubated for 24 hrs followed by APAP addition and measured after 24 hrs; format: functional, cell-based; conditions: dose 6.25-25 µM, time 48.0 hrs
HepG2 [4] = assay: Hepatoprotective activity against APAP-induced cell injury in human HepG2 cells assessed as reduction in AST level at 6.25 to 25 uM preincubated for 24 hrs followed by APAP addition and measured after 24 hrs; format: functional, cell-based; conditions: dose 6.25-25 µM, time 48.0 hrs
HepG2 [5] = assay: Hepatoprotective activity in human HepG2 cells assessed as restoration of APAP-induced inhibition of Bcl-2 expression preincubated for 24 hrs followed by APAP addition and measured after 24 hrs by Western blot analysis; format: functional, cell-based; conditions: dose 6.25-25 µM, time 48.0 hrs
HepG2 [6] = assay: Hepatoprotective activity against APAP-induced human HepG2 cell apoptosis assessed as late apoptotic cells at 25 uM incubated for 24 hrs in presence of APAP by Annexin V-FITC/PI staining based flow cytometry (reference value: 11.01%); format: functional
HepG2 [7] = assay: Hepatoprotective activity against APAP-induced cell injury in human HepG2 cells assessed as increase in Nrf2 expression at 6.25 to 25 uM preincubated for 24 hrs followed by APAP addition and measured after 24 hrs by Western blot analysis; format: functional, cell-based; conditions: dose 6.25-25 µM, time 48.0 hrs
HepG2 [8] = assay: Hepatoprotective activity in human HepG2 cells assessed as inhibition of APAP-induced increase in Bax expression preincubated for 24 hrs followed by APAP addition and measured after 24 hrs by Western blot analysis; format: functional, cell-based; conditions: dose 6.25-25 µM, time 48.0 hrs
HepG2 [9] = assay: Hepatoprotective activity against APAP-induced human HepG2 cell apoptosis assessed as early apoptotic cells at 25 uM incubated for 24 hrs in presence of APAP by Annexin V-FITC/PI staining based flow cytometry (reference value: 25.81%); format: functional
HepG2 [10] = assay: Hepatoprotective activity in human HepG2 cells assessed as reduction in APAP-induced increased in ROS level at 25 uM measured after 24 hrs in presence of APAP by DCF staining based flow cytometry; format: functional, cell-based
HepG2 [11] = assay: Hepatoprotective activity against APAP-induced cell injury in human HepG2 cells assessed as increase in HO-1 expression at 6.25 to 25 uM preincubated for 24 hrs followed by APAP addition and measured after 24 hrs by Western blot analysis; format: functional, cell-based; conditions: dose 6.25-25 µM, time 48.0 hrs
HepG2 [12] = assay: Hepatoprotective activity against APAP-induced human HepG2 cell apoptosis assessed as necrotic cells at 25 uM incubated for 24 hrs in presence of APAP by Annexin V-FITC/PI staining based flow cytometry (reference value: 0.49%); format: functional
HepG2 [13] = assay: Hepatoprotective activity against APAP-induced cell injury in human HepG2 cells assessed as increase in GPX4 expression at 6.25 to 25 uM preincubated for 24 hrs followed by APAP addition and measured after 24 hrs by Western blot analysis; format: functional, cell-based; conditions: dose 6.25-25 µM, time 48.0 hrs
HepG2 [14] = assay: Hepatoprotective activity against APAP-induced cell injury in human HepG2 cells assessed as increase in GSH-Px activity at 6.25 to 25 uM preincubated for 24 hrs followed by APAP addition and measured after 24 hrs; format: functional, cell-based; conditions: dose 6.25-25 µM, time 48.0 hrs
HepG2 [15] = assay: Hepatoprotective activity against APAP-induced human HepG2 cell apoptosis assessed as viable cells at 25 uM incubated for 24 hrs in presence of APAP by Annexin V-FITC/PI staining based flow cytometry (Rvb=62.69%); format: functional; conditions: read-out: Activity
HepG2 [16] = assay: Hepatoprotective activity against APAP-induced cell injury in human HepG2 cells assessed as reduction in ALT level at 10 uM preincubated for 24 hrs followed by APAP addition and measured after 24 hrs; format: functional, cell-based; conditions: time 48.0 hrs
HepG2 [17] = assay: Hepatoprotective activity against APAP-induced cell injury in human HepG2 cells assessed as reduction in AST level at 10 uM preincubated for 24 hrs followed by APAP addition and measured after 24 hrs; format: functional, cell-based; conditions: time 48.0 hrs

Row | Structure (SMILES) | Activity (HepG2 [1]) | Activity (HepG2 [2]) | Activity (HepG2 [3]) | Activity (HepG2 [4]) | other results
1 | COc1cc(C(=O)OC[C@H]2O[C@@H](Oc3cc(OC)c(OC)c(OC)c3)[C@H](O)[C@@H](O)[C@@H]2O)ccc1O | Non-toxic | Dose-dependent-effect | Active; Significant Effect Observed | Active; Significant Effect Observed | 
2 | CCCCO[C@H]1OC[C@](O)(COC(=O)c2ccc(O)c(OC)c2)[C@H]1O | Non-toxic | Dose-dependent-effect | Active; Significant Effect Observed | Active; Significant Effect Observed | 
3 | COc1cc(O[C@@H]2O[C@H](COC(=O)c3ccc(O)c(OC)c3)[C@@H](O[C@@H]3O[C@H](CO)[C@@H](O)[C@H](O)[C@H]3O)[C@H](O)[C@H]2O)ccc1O | Non-toxic | Dose-dependent-effect | Active; Significant Effect Observed | Active; Significant Effect Observed | Activity (HepG2 [5]): Dose-dependent-effect; Significant Effect Observed; Activity (HepG2 [6]): 9.43%; Activity (HepG2 [7]): Active; inhibition (HepG2 [8]): Dose-dependent-effect; Significant Effect Observed; Activity (HepG2 [9]): 20.51%; Activity (HepG2 [10]): Active; Activity (HepG2 [11]): Active; Activity (HepG2 [12]): 0.9%; Activity (HepG2 [13]): Active; Activity (HepG2 [14]): Active; viability at 25 µM (HepG2 [15]): 69.2%
4 | COc1cc([C@@H]2Oc3cc([C@H]4Oc5cc(O)cc(O)c5C(=O)[C@@H]4O)ccc3O[C@H]2CO)ccc1O |  |  |  |  | Activity (HepG2 [16]): Active; Activity (HepG2 [17]): Active
5 | COc1cc(O[C@@H]2O[C@H](COC(=O)c3cc(OC)c(O)c(OC)c3)[C@@H](O[C@@H]3O[C@H](CO)[C@@H](O)[C@H](O)[C@H]3O)[C@H](O)[C@H]2O)ccc1O | Non-toxic | Dose-dependent-effect | Active; Significant Effect Observed | Active; Significant Effect Observed | 
6 | CCCCO[C@@H]1OC[C@](O)(COC(=O)c2ccc(O)c(OC)c2)[C@H]1O | Non-toxic | Dose-dependent-effect | Active; Significant Effect Observed | Active; Significant Effect Observed | 
7 | COc1cc(O[C@@H]2O[C@H](CO)[C@@H](O)[C@H](O)[C@H]2O[C@@H]2OC[C@](O)(COC(=O)c3ccc(O)c(OC)c3)[C@H]2O)ccc1O | Non-toxic | Dose-dependent-effect | Active; Significant Effect Observed | Active; Significant Effect Observed | 
8 | COc1cc(CO)ccc1O[C@@H]1O[C@H](COC(=O)c2cc(OC)c(O)c(OC)c2)[C@@H](O[C@@H]2O[C@H](CO)[C@@H](O)[C@H](O)[C@H]2O)[C@H](O)[C@H]1O | Non-toxic | Dose-dependent-effect | Active; Significant Effect Observed | Active; Significant Effect Observed | 
